From patent publication CN101125142A, “青蒿素在制备抗肿瘤多药耐药药物中的应用” (DONGZHIMEN HOSPITAL AFFILIATED TO BEIJING UNIVERSITY OF …, priority 2007, dated 2008)
Several values for one entry are separate records, joined by “and”; a condition that tells them apart may be missing. Equal values may be shown once. Entries after “also recorded” stand apart in the source; their conditions may differ. Read-outs that look alike come from different tables or passages of the source.

What was measured:
KBV200 cells (KBV200细胞) [1] = settings: KBV200 cell line; cited from earlier work
KBV200 cells (KBV200细胞) [2] = test: Reversal of resistance: MTT growth inhibition of KBV200 cells by agent combined with VCR; type: cell-based, human; settings: for inhibition rate of KBV200 cells on combination with VCR: VCR concentration constant, three agent concentrations; for reversal of vincristine resistance / sensitisation of KBV200 to VCR: agent combined with VCR
KBV200 cells (KBV200细胞) [3] = test: MTT cytotoxicity test: growth inhibition of KBV200 cells by single agents; type: cell-based, human; settings: for IC50: KBv200; for inhibitory effect on tumour cells compared with another agent: artesunate versus artemisinin, dihydroartemisinin versus artesunate
[4] = system: tumour multidrug resistance (肿瘤多药耐药); settings: background; cited from earlier work
[5] = Homo sapiens, mass concentration in brackets beside the μmol/l value
[6] = Homo sapiens, single agent, 72 h (discussion)

O=c1[nH]cc(F)c(=O)[nH]1 [5-氟脲嘧啶]
resistance (KBV200 cells (KBV200细胞) [1]): 耐药性较低

C[C@H]1[C@H](OC(=O)CCC(=O)O)O[C@@H]2O[C@@]3(C)CC[C@H]4[C@H](C)CC[C@@H]1[C@@]24OO3 [青蒿琥酯]
inhibition rate of KBV200 cells on combination with VCR (KBV200 cells (KBV200细胞) [2]): 略有提高 | reversal of vincristine resistance / sensitisation of KBV200 to VCR (KBV200 cells (KBV200细胞) [2]): 有一定的增敏作用 | reversal fold (RI) (KBV200 cells (KBV200细胞) [2]; artesunate 0.078 umol/l with VCR): 1.19 | reversal fold (RI) (KBV200 cells (KBV200细胞) [2]; artesunate 0.156 umol/l with VCR): 1.79 | reversal fold (RI) (KBV200 cells (KBV200细胞) [2]; artesunate 0.313 umol/l with VCR): 2.57 | selective killing of KBV200 cells (KBV200 cells (KBV200细胞) [3]): 有选择性杀伤作用 | IC50 (KBV200 cells (KBV200细胞) [3]; [5]): 0.563 µg/mL | IC50 (KBV200 cells (KBV200细胞) [3]; [6]): 1.47 µM | inhibition rate (IR) (KBV200 cells (KBV200细胞) [3]; artesunate 0.0156 μmol/l (so in the source), 72 h): 9.520±4.910% | inhibition rate (IR) (KBV200 cells (KBV200细胞) [3]; artesunate 0.0390 μmol/l, 72 h): 1.640±3.520% | inhibition rate (KBV200 cells (KBV200细胞) [3]; artesunate 0.156 umol/l): < 20% | inhibition rate (IR) (KBV200 cells (KBV200细胞) [3]; artesunate 0.3130 μmol/l, 72 h): < 20% and 18.41±4.420% | inhibition rate (IR) (KBV200 cells (KBV200细胞) [3]; artesunate 0.6250 μmol/l, 72 h): 35.25±10.52% | inhibition rate (IR) (KBV200 cells (KBV200细胞) [3]; artesunate 1.2500 μmol/l, 72 h): 47.56±1.250% | inhibition rate (IR) (KBV200 cells (KBV200细胞) [3]; artesunate 2.5000 μmol/l, 72 h): 57.67±1.110% | inhibition rate (IR) (KBV200 cells (KBV200细胞) [3]; artesunate 5.0000 μmol/l, 72 h): 69.85±6.900% | inhibition rate (IR) (KBV200 cells (KBV200细胞) [3]; artesunate 10.000 μmol/l, 72 h): 84.47±0.600% | inhibition rate (IR) (KBV200 cells (KBV200细胞) [3]; artesunate 20.000 μmol/l, 72 h): 95.02±6.560% | inhibition rate (KBV200 cells (KBV200细胞) [3]; artesunate above 1.466 umol/l): > 50% | inhibitory effect on KBV200 cells (KBV200 cells (KBV200细胞) [3]; artesunate below 0.039 umol/l): 几乎无抑制效应 | inhibition rate (KBV200 cells (KBV200细胞) [3]; artesunate below 0.313 umol/l): < 20% | inhibitory effect on KBV200 cells (KBV200 cells (KBV200细胞) [3]; artesunate below 1.25 umol/l): 抑制效应并不明显 | inhibitory effect on tumour cells compared with another agent (KBV200 cells (KBV200细胞) [3]): 比青蒿素显著增强 | inhibitory effect on KBV200 cells (KBV200 cells (KBV200细胞) [3]; overall statement): 大浓度具有一定的抑制KBV200细胞增殖效应; also recorded: 均有一定抑制效应

COc1cccc2c1C(=O)c1c(O)c3c(c(O)c1C2=O)C[C@@](O)(C(=O)CO)C[C@@H]3O[C@H]1C[C@H](N)[C@H](O)[C@H](C)O1 [阿霉素]
fold resistance (KBV200 cells (KBV200细胞) [1]): ~15 fold

COc1cc2c(cc1OC)[C@@H]1Cc3ccc(OC)c(OC)c3CN1CC2 [左旋四氢马汀]
reversal fold [4]: 8.2-13.0

C[C@@H]1CC[C@H]2[C@@H](C)C(=O)O[C@@H]3O[C@@]4(C)CC[C@@H]1[C@]32OO4 [青蒿素]
inhibition rate of KBV200 cells on combination with VCR (KBV200 cells (KBV200细胞) [2]): 明显提高 | reversal of vincristine resistance / sensitisation of KBV200 to VCR (KBV200 cells (KBV200细胞) [2]): 可部分逆转; also recorded: 具有不同的逆转KBV200耐药效应 | reversal fold (RI) (KBV200 cells (KBV200细胞) [2]; artemisinin 10 umol/l with VCR, RI = IC50 VCR / IC50 VCR+agent): 2.29 | reversal fold (RI) (KBV200 cells (KBV200细胞) [2]; artemisinin 20 umol/l with VCR): 2.68 | reversal fold (RI) (KBV200 cells (KBV200细胞) [2]; artemisinin 40 umol/l with VCR): 3.0 | IC50 (KBV200 cells (KBV200细胞) [3]; [5]): 48.6 µg/mL | IC50 (KBV200 cells (KBV200细胞) [3]; [6]): 172 µM | inhibition rate (IR) (KBV200 cells (KBV200细胞) [3]; artemisinin 2.50 μmol/l, 72 h): 1.140±2.85% | inhibition rate (IR) (KBV200 cells (KBV200细胞) [3]; artemisinin 5.00 μmol/l, 72 h): 2.690±4.36% | inhibition rate (IR) (KBV200 cells (KBV200细胞) [3]; artemisinin 20.0 μmol/l, 72 h): < 20% and 12.70±2.53% | inhibition rate (IR) (KBV200 cells (KBV200细胞) [3]; artemisinin 40.0 μmol/l, 72 h): < 20% and 19.22±5.59% | inhibition rate (IR) (KBV200 cells (KBV200细胞) [3]; artemisinin 80.0 μmol/l, 72 h): 28.47±2.73% | inhibition rate (IR) (KBV200 cells (KBV200细胞) [3]; artemisinin 160 μmol/l, 72 h): 43.57±5.20% | inhibition rate (KBV200 cells (KBV200细胞) [3]; artemisinin above 172.4 umol/l): > 50% | inhibitory effect on KBV200 cells (KBV200 cells (KBV200细胞) [3]; artemisinin below 2.50 umol/l): 几乎无抑制效应 | inhibition rate (KBV200 cells (KBV200细胞) [3]; artemisinin below 40 umol/l): < 20% | inhibition rate (KBV200 cells (KBV200细胞) [3]; artemisinin below 80 umol/l): < 30% | inhibitory effect on KBV200 cells (KBV200 cells (KBV200细胞) [3]; artemisinin below 160 umol/l): 抑制效应并不明显 | inhibitory effect on KBV200 cells (KBV200 cells (KBV200细胞) [3]; overall statement): 大浓度具有一定的抑制KBV200细胞增殖效应; also recorded: 均有一定抑制效应

COC(=O)C[C@](O)(CCCC(C)(C)O)C(=O)O[C@@H]1C(OC)=C[C@]23CCCN2CCc2cc4c(cc2[C@H]13)OCO4 [高三尖杉酯]
resistance (KBV200 cells (KBV200细胞) [1]): 耐药性较低

CC(=O)O[C@H]1C(=O)[C@@]2(C)[C@H]([C@H](OC(=O)c3ccccc3)[C@]3(O)C[C@H](OC(=O)[C@H](O)[C@@H](NC(=O)c4ccccc4)c4ccccc4)C(C)=C1C3(C)C)[C@]1(OC(C)=O)CO[C@@H]1C[C@@H]2O [紫杉醇]
fold resistance (KBV200 cells (KBV200细胞) [1]): ~156 fold

COc1cc([C@@H]2c3cc4c(cc3[C@@H](O[C@@H]3O[C@@H]5CO[C@@H](C)O[C@H]5[C@H](O)[C@H]3O)[C@H]3COC(=O)[C@H]23)OCO4)cc(OC)c1O [鬼臼乙叉甙]
resistance (KBV200 cells (KBV200细胞) [1]): 耐药性较低

COc1cc2c(cc1OC)[C@@H](Cc1ccc(Oc3cc(C[C@@H]4c5cc(OC)c(OC)cc5CCN4C)ccc3O)cc1)N(C)CC2 [蝙蝠葛碱]
reversal fold [4]: 8.2-13.0

COc1cc2c(c(OC)c1OC)-c1ccc(OC)c(=O)cc1[C@@H](NC(C)=O)CC2 [秋水仙素]
fold resistance (KBV200 cells (KBV200细胞) [1]): ~15 fold

人参皂甙Rb1
reversal fold [4]: 8.2-13.0

CC[C@]1(O)C[C@H]2CN(CCc3c([nH]c4ccccc34)[C@@](C(=O)OC)(c3cc4c(cc3OC)N(C=O)[C@H]3[C@@](O)(C(=O)OC)[C@H](OC(C)=O)[C@]5(CC)C=CCN6CC[C@]43[C@@H]65)C2)C1 [VCR, 长春新碱]
fold resistance (KBV200 cells (KBV200细胞) [1]): ~175 fold | inhibition rate (KBV200 cells (KBV200细胞) [3]): < 50% | inhibition at 0.125 µg/mL (KBV200 cells (KBV200细胞) [3]; Homo sapiens, KBv200, 72 h, VCR 0.125 μg/ml, 72 h, read-out: inhibition rate (IR)): 6.51 ± 2.59% | inhibition at 0.25 µg/mL (KBV200 cells (KBV200细胞) [3]; Homo sapiens, KBv200, 72 h, VCR 0.250 μg/ml, 72 h, read-out: inhibition rate (IR)): 9.06 ± 3.13% | inhibition at 0.5 µg/mL (KBV200 cells (KBV200细胞) [3]; Homo sapiens, KBv200, 72 h, VCR 0.500 μg/ml, 72 h, read-out: inhibition rate (IR)): 13.9 ± 3.54% | inhibition at 1 µg/mL (KBV200 cells (KBV200细胞) [3]; Homo sapiens, KBv200, 72 h, VCR 1.000 μg/ml, 72 h, read-out: inhibition rate (IR)): 25.6 ± 1.71% | inhibition at 2 µg/mL (KBV200 cells (KBV200细胞) [3]; Homo sapiens, KBv200, 72 h, VCR 2.000 μg/ml, 72 h, read-out: inhibition rate (IR)): 66.3 ± 0.01% | IC50 (KBV200 cells (KBV200细胞) [3]; Homo sapiens, VCR alone, 72 h): 1.58 ± 1.22 µg/mL | inhibition rate (IR) (KBV200 cells (KBV200细胞) [3]; VCR 0.500 μg/ml, 72 h): 13.96±3.54% | inhibition rate (IR) (KBV200 cells (KBV200细胞) [3]; VCR 1.000 μg/ml, 72 h): 25.65±1.71% | inhibition rate (IR) (KBV200 cells (KBV200细胞) [3]; VCR 2.000 μg/ml, 72 h): 66.31±0.01% | inhibitory effect on KBV200 cells (KBV200 cells (KBV200细胞) [3]; VCR above 1.58 μg/ml): 具有较为明显的抑制效应 | inhibitory effect on KBV200 cells (KBV200 cells (KBV200细胞) [3]; VCR below 1 μg/ml): 抑制效应并不明显

CC1CCC2C(C)C(O)OC3OC4(C)CCC1C32OO4 (stereo not drawn) [二氢青蒿素]
inhibition rate of KBV200 cells on combination with VCR (KBV200 cells (KBV200细胞) [2]): 略有提高 | reversal of vincristine resistance / sensitisation of KBV200 to VCR (KBV200 cells (KBV200细胞) [2]): 有一定的增敏作用 | reversal fold (RI) (KBV200 cells (KBV200细胞) [2]; dihydroartemisinin 0.625 umol/l with VCR): 1.35 | reversal fold (RI) (KBV200 cells (KBV200细胞) [2]; dihydroartemisinin 1.25 umol/l with VCR): 1.515 | reversal fold (RI) (KBV200 cells (KBV200细胞) [2]; dihydroartemisinin 2.5 umol/l with VCR): 1.74 | IC50 (KBV200 cells (KBV200细胞) [3]; [5]): 3.18 µg/mL | IC50 (KBV200 cells (KBV200细胞) [3]; [6]): 11.2 µM | inhibitory effect on tumour cells compared with another agent (KBV200 cells (KBV200细胞) [3]): 较青蒿琥酯次之 | inhibition rate (IR) (KBV200 cells (KBV200细胞) [3]; dihydroartemisinin 0.156 μmol/l, 72 h): 0.680±0.84% | inhibition rate (IR) (KBV200 cells (KBV200细胞) [3]; dihydroartemisinin 0.313 μmol/l, 72 h): 0.940±3.87% | inhibition rate (IR) (KBV200 cells (KBV200细胞) [3]; dihydroartemisinin 1.250 μmol/l, 72 h): < 20% and 10.00±3.31% | inhibition rate (IR) (KBV200 cells (KBV200细胞) [3]; dihydroartemisinin 2.500 μmol/l, 72 h): < 20% and 18.50±4.88% | inhibition rate (IR) (KBV200 cells (KBV200细胞) [3]; dihydroartemisinin 5.000 μmol/l, 72 h): 32.30±10.1% | inhibition rate (IR) (KBV200 cells (KBV200细胞) [3]; dihydroartemisinin 10.00 μmol/l, 72 h): 48.69±6.53% | inhibition rate (IR) (KBV200 cells (KBV200细胞) [3]; dihydroartemisinin 20.00 μmol/l, 72 h): 71.98±7.16% | inhibition rate (IR) (KBV200 cells (KBV200细胞) [3]; dihydroartemisinin 40.00 μmol/l, 72 h): 89.99±4.39% | inhibition rate (KBV200 cells (KBV200细胞) [3]; dihydroartemisinin above 11.16 umol/l): > 50% | inhibitory effect on KBV200 cells (KBV200 cells (KBV200细胞) [3]; dihydroartemisinin below 0.313 umol/l): 几乎无抑制效应 | inhibition rate (KBV200 cells (KBV200细胞) [3]; dihydroartemisinin below 2.5 umol/l): < 20% | inhibitory effect on KBV200 cells (KBV200 cells (KBV200细胞) [3]; dihydroartemisinin below 10 umol/l): 抑制效应并不明显 | inhibitory effect on KBV200 cells (KBV200 cells (KBV200细胞) [3]; overall statement): 大浓度具有一定的抑制KBV200细胞增殖效应; also recorded: 均有一定抑制效应

COc1ccc2cc1Oc1ccc(cc1)C[C@H]1c3cc(c(OC)cc3CCN1C)Oc1c(OC)c(OC)cc3c1[C@H](C2)N(C)CC3 [粉防已碱]
reversal fold [4]: 8.2-13.0
